Results: patent US20080293689A1, “Compounds with Atypical Antipsychotic Activity” (SIGMA-TAU INDUSTRIE FARMACEUTICHE RIUNITE S.P.A., priority 2004, published 2008)
Where “and” joins values, the source holds several entries; their conditions need not be identical. Identical values can stand only once.

Tests used:
avoidance response = test: Active avoidance test; type: in vivo; conditions: Rattus norvegicus; male Fischer 344 rats; oral, 60 minutes prior to the test; read-out: Inhibition of avoidance response (ED50)
Description: Effect of Treatment in Active Avoidance Test.
The administration of incremental doses of an antipsychotic drug in the rat causes inhibition of the active avoidance response and an increase in the number of escape responses without any increase in failures. This change in the animal's avoidance behaviour is characteristic of the effect of the administration of a compound endowed with anti-psychotic activity. Therefore, the evaluation of such behaviour enables us to detect and determine the antipsychotic capacity of a product.
Male Fischer 344 rats weighing 180 g (Charles River) were used.
To carry out the test to assess the avoidance behaviour of the rats a piece of equipment was used (Ugo Basile) consisting of a plastic cage divided into two compartments by a partition wall with an aperture in it allowing communication between the two sectors. Each of the two sectors can be illuminated by a 10 Watt lamp placed above a plexiglas lid covering the cage. A programming device allows the regulation of the duration and frequency of the unconditioned and discriminatory stimuli and a computerised system acquires the experimental data. […]
Before treatment with the study compounds, the animals were selected in relation to their ability to master the task. […] The results were expressed as means and standard errors.

catalepsy [1] = test: in vivo; conditions: male, Wistar, rat, po, Induction of catalepsy (ED50)
Description: Effect of Treatment in Catalepsy Test.
(§1) The test was carried out on male rats of the Wistar strain (n=7 animals); evaluation of catalepsy was done by means of a metal rod measuring 0.6 cm in diameter positioned at a distance of 10 cm from the work surface. […] Subsequent observations were recorded at 60, 90, 120, 180, 240, and 300 minutes after administration.

5HT2a receptor = target: T1, 5HT2a receptor (Rattus norvegicus, UniProt P14842); test: Radioligand binding to 5HT2a receptor (prefrontal cortex, 3H-ketanserin)
T1 construct: using different cerebral areas (striate D1 and D2; prefrontal cortex 5HT2a); from tissue; host or cells: prefrontal cortex
Description: (§2) For the D2 receptor ^3H-Spiperone (0.2 nM) was used and the non-specific binding was determined in the presence of 100 μM of (−)sulpiride. As regards the D3 receptor, the radioligand selected 3H-7-OH-DPAT was used at the concentration of 0.2 μM and the non-specific binding was obtained in the presence of dopamine 10 μM. Lastly, interaction with 5HT2a was evaluated using ^3H-ketanserin (0.7 μM) and the non-specific binding was determined in the presence of methysergide 1 μM.

[2] = target: T2, cloned dopamine receptor subtype 3 (Rattus norvegicus, UniProt P19020); test: Radioligand binding to D3 receptor (transfected Sf9 cell membranes, 3H-7-OH-DPAT)
T2 construct: purchased Signal Screen; host or cells: Sf9 cells
Description: as §2

catalepsy [3] = conditions: rat, in vivo, po, 100 mg/kg
Description: Effect of Treatment in Catalepsy Test.
as §1

D1 receptor = D1 receptor (Rattus norvegicus, UniProt P18901)
D1 receptor, sequence (P18901 whole entry): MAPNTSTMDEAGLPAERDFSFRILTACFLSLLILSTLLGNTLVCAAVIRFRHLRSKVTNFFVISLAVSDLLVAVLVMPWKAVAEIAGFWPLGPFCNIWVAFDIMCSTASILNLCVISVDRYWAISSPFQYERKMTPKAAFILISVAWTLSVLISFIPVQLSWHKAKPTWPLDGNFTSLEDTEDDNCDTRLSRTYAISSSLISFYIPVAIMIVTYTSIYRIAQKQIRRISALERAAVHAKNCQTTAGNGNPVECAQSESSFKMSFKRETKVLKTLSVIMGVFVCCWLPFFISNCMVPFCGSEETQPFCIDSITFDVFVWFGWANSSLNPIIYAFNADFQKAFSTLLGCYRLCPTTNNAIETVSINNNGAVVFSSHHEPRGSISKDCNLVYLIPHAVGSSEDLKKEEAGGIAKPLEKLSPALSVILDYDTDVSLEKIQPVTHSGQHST
Description: as §2

T1 sequence (P14842 whole entry): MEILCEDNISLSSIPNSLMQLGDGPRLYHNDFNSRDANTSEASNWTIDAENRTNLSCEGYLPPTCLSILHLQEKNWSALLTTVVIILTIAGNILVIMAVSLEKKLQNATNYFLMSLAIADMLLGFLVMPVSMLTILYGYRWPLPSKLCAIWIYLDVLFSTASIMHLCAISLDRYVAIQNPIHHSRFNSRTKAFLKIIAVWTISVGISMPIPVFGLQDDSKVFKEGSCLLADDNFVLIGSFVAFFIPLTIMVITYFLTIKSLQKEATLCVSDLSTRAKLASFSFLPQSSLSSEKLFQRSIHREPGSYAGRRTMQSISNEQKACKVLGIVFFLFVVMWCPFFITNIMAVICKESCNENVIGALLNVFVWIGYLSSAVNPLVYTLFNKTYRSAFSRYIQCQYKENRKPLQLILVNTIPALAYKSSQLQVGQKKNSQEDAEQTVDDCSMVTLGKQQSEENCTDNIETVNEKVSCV
T2 sequence (P19020 whole entry): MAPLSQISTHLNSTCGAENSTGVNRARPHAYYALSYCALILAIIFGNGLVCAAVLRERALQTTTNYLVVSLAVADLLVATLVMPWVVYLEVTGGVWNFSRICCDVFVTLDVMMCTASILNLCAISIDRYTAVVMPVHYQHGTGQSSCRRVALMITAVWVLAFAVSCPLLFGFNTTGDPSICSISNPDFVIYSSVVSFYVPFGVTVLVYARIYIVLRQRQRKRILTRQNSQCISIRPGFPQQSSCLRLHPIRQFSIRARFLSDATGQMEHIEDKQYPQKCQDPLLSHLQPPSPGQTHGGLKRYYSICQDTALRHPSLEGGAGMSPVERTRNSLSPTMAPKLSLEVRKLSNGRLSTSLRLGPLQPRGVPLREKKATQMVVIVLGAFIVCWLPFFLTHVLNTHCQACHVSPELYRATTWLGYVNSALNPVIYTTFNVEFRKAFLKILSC

| 5HT2A pKi (5HT2a receptor) | Log Y (5HT2a receptor; from relative affinity for 5HT2, D2 and D1, classic >6.48, atypical <6.48) | Ki (5HT2a receptor; prefrontal cortex, 3H-ketanserin) | Ki [2] | D1 pKi (D1 receptor) | Ki (D1 receptor; read-out: D1 (Ki: nM), striate, [3H]-SCH 23390) | Compound | ED50 (avoidance response) | ED50 (catalepsy [1]) | Presence of catalepsy (catalepsy [3]) |
| --- | --- | --- | --- | --- | --- | --- | --- | --- | --- |
|  |  |  |  |  |  | CN1CCN(C2=Nc3cc(Cl)ccc3Nc3ccccc32)CC1 [Clozapine, reference compound] | 4.9 mg/kg and 15 µmol/kg | 100 mg/kg and 276 µmol/kg |  |
| 8.14 | 3.20 | 7.2 nM | 224 nM | 6.90 | 125 nM | CN1CCN(C2=Cc3ccccc3Cn3cccc32)CC1 [ST2329, 11-(4-Methylpiperazin-1-yl)-5H-pyrrolo[2,1-b][2]benzazepine] | 0.56 mg/kg and 2 µmol/kg |  | no presence of catalepsy was detected |
